Each compound was assayed against MCH receptor (Homo sapiens, UniProt Q99705) (assay: High throughput functional screening FLIPR/FDSS6000: inhibition of MCH-evoked intracellular Ca2+ changes). Details: class by percent of control at 10^-7 M or IC50.
Format: cell-based
From the text: Subsequently, a functional based assay was used to confirm the lead hits, referred to as FLIPR™ (the Fluorometric Imaging Plate Reader) and FDSS6000™ (Functional Drug Screening System). This assay utilized 3 non-endozenous, constitutively active version of the MCH receptor.
The FLIPR and FDSS assays are able to detect intracellular Ca^2+ concentration in cells, which can be utilized to assess receptor activation and determine whether a candidate compound is an, for example, antagonist, inverse agonist or agonist to a Gq-coupled receptor. The concentration of free Ca^2+ in the cytosol of any cell is extremely low, whereas its concentration in the extracellular fluid and endoplasmic reticulum (ER) is very high. Thus, there is a large gradient tending to drive Ca^2+ into the cytosol across both the plasma membrane and ER. The FLIPR™ and FDSS6000™ systems (Molecular Devices Corporation, HAMAMATSU Photonics K.K.) are designed to perform functional cell-based assays, such as the measurement of intracellular calcium for high-throughput screening, The measurement of fluorescent is associated with calcium release upon activation of the Gq-coupled receptors.
Fluorometric Imaging Plate Reader system was used to allow for rapid, kinetic measurements of intracellular fluorescence in 96 well microplates (or 384 well microplates). Simultaneous measurements of fluorescence in all wells can be made by FLIPR or FDSS6000™ every second with high sensitivity and precision. These systems are ideal for measuring cell-based functional assays such as monitoring the intracellular calcium fluxes that occur within seconds after activation of the Gq coupled receptor.
Briefly, the cells are seeded into 96 well at 5.5×10^4 cells/well with complete culture media (Dulbecco's Modified Eagle Medium with 10% fetal bovine serum, 2 mMi L-glutamine, 1 mM sodium pyruvate and 0.5 mg/ml G418, pH 7.4) for the assay next day. On the day of assay, the media is removed and the cells are incubated with 100 μl of loading buffer (4 μM Fluo4-AM in complete culture media containing 2.5 mM Probenicid, 0.5 mg/ml and 0.2% bovine serum albumin) in 5% CO2 incubator at 37° C. for 1 hr. The loading buffer is removed, and the cells are washed with wash buffer (Hank's Balanced Salt Solution containing 2.5 mM Probenicid, 20 mM HEPES, 0.5 mg/ml and 0.2% bovine serum albumm, pH 7.4)). One hundred fifty μl of wash buffer containing various concentrations of test compound is added to the cells, and the cells are incubated in 5% CO2 incubator at 37° C. for 3 min. Fifty μl of wash buffer containing various concentration of MCH are added to each well, and transient changes in [Ca^2+]i evokled bee MCH are monoitored using the FLIPR, or FDSS in 96 shell plates at Ex. 488 nm and Em. 530 nm for 290 second. When antagonist activity of compound is tested, 50 nM of MCH is used.
Use of FLIPR™ and FDSS6000™ can be accomplished by following manufacturer's instruction (Molecular Device Corporation and HAMAMATSU Photonics K.K.).

Structure (SMILES) | class
Cc1cccc(C)c1NC(=S)NC[C@H]1CC[C@@H](Nc2nc(N(C)C)c3ccccc3n2)CC1 [compound 593, N-[(cis-4-{[4-(dimethylamino)quinazolin-2-yl]amino}cyclohexyl)methyl]-N′-(2,6-dimethylphenyl)thiourea] | 2 (Class 2: The value of percent of control at 10^−7 M was from 40% to 60% or the value of IC50 was from 50 nM to 200 nM.)
C/C=C/CNC(=S)N[C@H]1CC[C@@H](Nc2nc(N(C)C)c3ccccc3n2)CC1 [compound 327] | 3 (Class 3: The value of percent of control at 10^−7 M was more than 60% or the value of IC50 was more than 200 nM.)
CSc1ccc(NC(=O)NC[C@H]2CC[C@@H](Nc3nc(N(C)C)c4ccccc4n3)CC2)cc1 [compound 448, N-[(cis-4-{[4-(dimethylamino)quinazolin-2-yl]amino}cyclohexyl)methyl]-N′-[4-(methylthio)phenyl]urea] | 1 (Class 1: The value of percent of control at 10^−7 M was less than 40% or the value of IC50 was less than 50 nM.)
C#CCNC(=S)NC[C@H]1CC[C@@H](Nc2nc(N(C)C)c3ccccc3n2)CC1 [compound 777] | 3 (Class 3: The value of percent of control at 10^−7 M was more than 60% or the value of IC50 was more than 200 nM.)
CC(NC(=S)N[C@H]1CC[C@@H](Nc2nc(N(C)C)c3ccccc3n2)CC1)c1ccc(F)cc1 (relative stereo) [compound 273, N-(cis-4-{[4-(dimethylamino)quinazolin-2-yl]amino}cyclohexyl)-N′-[1-(4-fluorophenyl)ethyl]thiourea] | 2 (Class 2: The value of percent of control at 10^−7 M was from 40% to 60% or the value of IC50 was from 50 nM to 200 nM.)
CN(C)c1nc(N[C@H]2CC[C@@H](NC(=S)Nc3ccc(Br)cc3Cl)CC2)nc2ccccc12 [compound 233] | 1 (Class 1: The value of percent of control at 10^−7 M was less than 40% or the value of IC50 was less than 50 nM.)
COC(=O)c1sccc1NC(=S)N[C@H]1CC[C@@H](Nc2nc(N(C)C)c3ccccc3n2)CC1 [compound 382] | 1 (Class 1: The value of percent of control at 10^−7 M was less than 40% or the value of IC50 was less than 50 nM.)
CCc1ccccc1NC(=S)N[C@H]1CC[C@@H](Nc2nc(N(C)C)c3ccccc3n2)CC1 [compound 216] | 1 (Class 1: The value of percent of control at 10^−7 M was less than 40% or the value of IC50 was less than 50 nM.)
CN(C)c1nc(N[C@H]2CC[C@@H](CNC(=S)Nc3cc(F)ccc3F)CC2)nc2ccccc12 [compound 591] | 3 (Class 3: The value of percent of control at 10^−7 M was more than 60% or the value of IC50 was more than 200 nM.)
CN(C)c1nc(N[C@H]2CC[C@@H](NC(=S)Nc3ccc(S(N)(=O)=O)cc3)CC2)nc2ccccc12 [compound 319] | 3 (Class 3: The value of percent of control at 10^−7 M was more than 60% or the value of IC50 was more than 200 nM.)
CN(C)c1nc(N[C@H]2CC[C@@H](CNC(=O)Nc3ccccc3Oc3ccccc3)CC2)nc2ccccc12 [compound 514, N-[(cis-4-{[4-(dimethylamino)quinazolin-2-yl]amino}cyclohexyl)methyl]-N′-(2-phenoxyphenyl)urea] | 2 (Class 2: The value of percent of control at 10^−7 M was from 40% to 60% or the value of IC50 was from 50 nM to 200 nM.)
CN(C)c1nc(N[C@H]2CC[C@@H](CNC(=S)Nc3ccc(OC(F)(F)F)cc3)CC2)nc2ccccc12 [compound 654] | 3 (Class 3: The value of percent of control at 10^−7 M was more than 60% or the value of IC50 was more than 200 nM.)
Cc1cc(Br)ccc1NC(=O)NC[C@H]1CC[C@@H](Nc2nc(N(C)C)c3ccccc3n2)CC1 [compound 754] | 2 (Class 2: The value of percent of control at 10^−7 M was from 40% to 60% or the value of IC50 was from 50 nM to 200 nM.)
COc1cc(NC(=S)NC[C@H]2CC[C@@H](Nc3nc(N(C)C)c4ccccc4n3)CC2)c(OC)cc1Cl [compound 794] | 3 (Class 3: The value of percent of control at 10^−7 M was more than 60% or the value of IC50 was more than 200 nM.)
COc1ccc(CNC(=O)NC[C@H]2CC[C@@H](Nc3nc(N(C)C)c4ccccc4n3)CC2)cc1 [compound 449] | 3 (Class 3: The value of percent of control at 10^−7 M was more than 60% or the value of IC50 was more than 200 nM.)

Same assay, conditions: class by percent of control at 10^-7 M or by IC50; read-out: class

IC50 | Structure (SMILES)
> 200 nM | CN(C)c1nc(N[C@H]2CC[C@@H](NC(=S)NC34CC5CC(CC(C5)C3)C4)CC2)nc2ccccc12 (relative stereo) [compound 200]
< 50 nM | CCCCNC(=O)N[C@H]1CC[C@@H](Nc2nc(N(C)C)c3ccccc3n2)CC1 [compound 13, N-butyl-N′-(cis-4-{[4-(dimethylamino)quinazolin-2-yl]amino}cyclohexyl)urea]
> 200 nM | CN(C)c1nc(N[C@H]2CC[C@@H](NC(=O)Nc3ccc(Cl)cc3[N+](=O)[O-])CC2)nc2ccccc12 [compound 147]
> 200 nM | CN(C)c1nc(N[C@H]2CC[C@@H](NC(=O)Nc3cc(C(F)(F)F)cc(C(F)(F)F)c3)CC2)nc2ccccc12 [compound 8]
< 50 nM | Cc1ccccc1NC(=O)N[C@H]1CC[C@@H](Nc2nc(N(C)C)c3ccccc3n2)CC1 [compound 60, N-(cis-4-{[4-(dimethylamino)quinazolin-2-yl]amino}cyclohexyl)-N′-(2-methylphenyl)urea]
> 200 nM | CN(C)c1nc(N[C@H]2CC[C@@H](NC(=S)Nc3ccc(Cl)c(Cl)c3)CC2)nc2ccccc12 [compound 170]
50 to 200 nM | CN(C)c1nc(N[C@H]2CC[C@@H](NC(=O)Nc3ccc(F)cc3[N+](=O)[O-])CC2)nc2ccccc12 [compound 822, N-(cis-4-{[4-(dimethylamino)quinazolin-2-yl]amino}cyclohexyl)-N′-(4-fluoro-2-nitrophenyl)urea]
50 to 200 nM | COc1ccc(NC(=S)N[C@H]2CC[C@@H](Nc3nc(N(C)C)c4ccccc4n3)CC2)cc1 [compound 183, N-(cis-4-{[4-(dimethylamino)quinazolin-2-yl]amino}cyclohexyl)-N′-(4-methoxyphenyl)thiourea]
> 200 nM | CN(C)c1nc(N[C@H]2CC[C@@H](CNC(=S)Nc3ccc4nsnc4c3)CC2)nc2ccccc12 [compound 816]
> 200 nM | Cc1cc(NC(=O)N[C@H]2CC[C@@H](Nc3nc(N(C)C)c4ccccc4n3)CC2)c([N+](=O)[O-])cc1C [compound 138]
> 200 nM | Cc1cccc(CNC(=O)N[C@H]2CC[C@@H](Nc3nc(N(C)C)c4ccccc4n3)CC2)c1 [compound 49]

Structure (SMILES) | IC50
CN(C)c1nc(N[C@H]2CC[C@@H](NC(=O)Oc3ccccc3)CC2)nc2ccccc12 [compound 859] | > 200 nM

Same assay, conditions: class by percent of control at 10^−7 M or by IC50; read-out: class

IC50 | Structure (SMILES)
< 50 nM | CN(C)c1nc(N[C@H]2CC[C@@H](NC(=O)c3cccnc3Oc3ccc(Cl)c(F)c3)CC2)nc2ccccc12 [Example 1042, 2-(4-chloro-3-fluorophenoxy)-N-(cis-4-{[4-(dimethylamino)quinazolin-2-yl]amino}cyclohexyl)nicotinamide]
< 50 nM | Cc1c(Cl)cccc1CNC(=O)[C@H]1CC[C@@H](Nc2nc(N(C)C)c3ccccc3n2)CC1 [Example 1144, cis-N-(3-chloro-2-methylbenzyl)-4-{[4-(dimethylamino)quinazolin-2-yl]amino}cyclohexanecarboxamide]
> 200 nM | CN(C)c1nc(N[C@H]2CC[C@@H](NC(=O)C(O)c3c(F)cccc3F)CC2)nc2ccccc12 (relative stereo) [Example 1110, 2-(2,6-difluorophenyl)-N-(cis-4-{[4-(dimethylamino)quinazolin-2-yl]amino}cyclohexyl)-2-hydroxyacetamide]
> 200 nM | CN(C)c1nc(N[C@H]2CC[C@@H](C(=O)Nc3nc(C(C)(C)C)c(Br)s3)CC2)nc2ccccc12 [Example 1199, cis-N-(5-bromo-4-tert-butyl-1,3-thiazol-2-yl)-4-{[4(dimethylamino)quinazolin-2-yl]amino}cyclohexanecarboxamide]
< 50 nM | COc1cccc([C@@H](C)NC(=O)[C@H]2CC[C@@H](Nc3nc(N(C)C)c4ccccc4n3)CC2)c1 [Example 1137, cis-4-{[4-(dimethylamino)quinazolin-2-yl]amino}-N-[(1R)-1-(3-methoxyphenyl)ethyl]cyclohexanecarboxamide]

From patent publication US20070010671A1, “Novel quinazoline derivatives and methods of treatment related to the use thereof” (priority 2003, published 2007)
